Experimental data from ChEMBL document CHEMBL1201862, “PubChem BioAssay data set” (2004).
Where “and” joins values, the source holds several entries; their conditions need not be identical. Identical values can stand only once.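 Following 48 hours of exposure in 96-well plates, responses at five concentrations were used to interpolate endpoints linearly. GI50: concentration for 50% inhibition of growth.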 Calls of active or inactive are those of the source. Cut-off read from the data, not from the text of the source: active = GI50 up to about 1.1 µM and inactive = higher.

Tests used:
Test in all cases: DTP human tumour cell line panel, 48 h
[1] = tested on: OVCAR-8
[2] = tested on: BT-549
[3] = tested on: SNB-19
[4] = tested on: EKVX
[5] = tested on: Malme-3M
[6] = tested on: A549
[7] = tested on: MCF7
[8] = tested on: KM12
[9] = tested on: SNB-75
[10] = tested on: NCI-H460
[11] = tested on: MOLT-4
[12] = tested on: U-251
[13] = tested on: SW-620
[14] = tested on: K562
[15] = tested on: 786-0
[16] = tested on: M14
[17] = tested on: NCI/ADR-RES
[18] = tested on: SN12C
[19] = tested on: IGROV-1
[20] = tested on: SK-OV-3

Row | Compound | GI50 [1] | GI50 [2] | GI50 [3] | GI50 [4] | GI50 [5] | GI50 [6] | GI50 [7] | GI50 [8] | GI50 [9] | GI50 [10] | GI50 [11] | GI50 [12] | GI50 [13] | GI50 [14] | GI50 [15] | GI50 [16] | GI50 [17] | GI50 [18] | GI50 [19] | GI50 [20]
1 | BrC1(c2ccccc2)C[n+]2c(-c3ccccc3)cc(-c3ccccc3)cc2-c2ccccc21 (centres undefined) | 0.36 µM (active) | 0.407 µM (active) | 0.551 µM (active) | 0.457 µM (active) | 0.441 µM (active) | 0.929 µM (active) | 0.184 µM (active) | 0.299 µM (active) | 0.236 µM (active) | 0.444 µM (active) | 0.631 µM (active) | 0.226 µM (active) | 0.426 µM (active) | 0.159 µM (active) | 0.661 µM (active) | 0.499 µM (active) | 17.9 µM (inactive) | 3.88 µM (inactive) | 0.289 µM (active) | 
2 | CC(C)(C)OC(=O)NC(CSCc1ccc(C(=O)c2ccccc2)cc1)C(=O)O (centres undefined) | > 100 µM (inactive) | > 100 µM (inactive) | > 100 µM (inactive) | > 100 µM (inactive) | > 100 µM (inactive) | > 100 µM (inactive) | > 100 µM (inactive) | > 100 µM (inactive) | > 100 µM (inactive) | > 100 µM (inactive) | > 100 µM (inactive) | > 100 µM (inactive) | > 100 µM (inactive) | > 100 µM (inactive) | > 100 µM (inactive) |  | > 100 µM (inactive) | > 100 µM (inactive) | > 100 µM (inactive) | 
3 | O=C1CC(C(OCc2ccccc2)C(OCc2ccccc2)C(COCc2ccccc2)OCc2ccccc2)CC(=O)N1 (centres undefined) | > 75 µM (inactive) | > 100 µM (inactive) | > 75 µM (inactive) | > 100 µM (inactive) | > 100 µM (inactive) | 72.4 µM (inactive) | > 100 µM (inactive) and 51.9 µM (inactive) |  |  | > 75 µM (inactive) |  |  | > 100 µM (inactive) |  | > 75 µM (inactive) | > 75 µM (inactive) | > 75 µM (inactive) | > 75 µM (inactive) | > 100 µM (inactive) | 
4 | CC(C)CC1c2[nH]c3ccccc3c2C[C@H]2C(=O)NC(Cc3c[nH]c4ccccc34)C(=O)N12 (some centres undefined) | 15.9 µM (inactive) | 16.9 µM (inactive) | 16.8 µM (inactive) | 16 µM (inactive) | 14.6 µM (inactive) | 12.5 µM (inactive) | 14.8 µM (inactive) | 13.4 µM (inactive) |  |  | 13.2 µM (inactive) | 12.2 µM (inactive) | 18.1 µM (inactive) | 11.5 µM (inactive) | 17.5 µM (inactive) | 14.1 µM (inactive) | 18 µM (inactive) | 15.9 µM (inactive) | 15.5 µM (inactive) | 16.5 µM (inactive)
5 | CNC(C#N)c1ccc(OC)cc1 (centres undefined) | > 100 µM (inactive) | > 100 µM (inactive) | > 100 µM (inactive) | > 100 µM (inactive) | > 100 µM (inactive) | > 100 µM (inactive) | > 100 µM (inactive) | 78.9 µM (inactive) |  | > 100 µM (inactive) | 43.7 µM (inactive) | 53.3 µM (inactive) | 94.2 µM (inactive) | 34.1 µM (inactive) | > 100 µM (inactive) | > 100 µM (inactive) | > 100 µM (inactive) | > 100 µM (inactive) | > 100 µM (inactive) | > 100 µM (inactive)
6 | NC(=O)C(=CNC(=S)Nc1ccc(S(=O)(=O)Nc2ccccn2)cc1)C(N)=O | > 100 µM (inactive) | > 100 µM (inactive) | > 100 µM (inactive) | > 100 µM (inactive) |  | > 100 µM (inactive) | > 83.2 µM (inactive) | > 100 µM (inactive) | > 100 µM (inactive) | > 100 µM (inactive) | 1.52 µM (inactive) | > 100 µM (inactive) | 39.3 µM (inactive) | 40.6 µM (inactive) | > 100 µM (inactive) | > 100 µM (inactive) | 55.3 µM (inactive) | > 100 µM (inactive) | > 100 µM (inactive) | > 100 µM (inactive)
7 | CCOC(=O)Nc1ccc(S(=O)(=O)Nc2ccc(Br)cc2)cc1 | 23.3 µM (inactive) | 35.1 µM (inactive) | 73.5 µM (inactive) | 29.2 µM (inactive) | 74 µM (inactive) | 60.1 µM (inactive) | 23.3 µM (inactive) | 37.3 µM (inactive) |  | 23.2 µM (inactive) | 26.9 µM (inactive) | 43 µM (inactive) | 24.3 µM (inactive) | 17.3 µM (inactive) | 36.8 µM (inactive) | 49.3 µM (inactive) | 34.4 µM (inactive) | 59.8 µM (inactive) | 35 µM (inactive) | 25.9 µM (inactive)
8 | O=c1n(Cc2ccccc2)c(=O)n2c(=O)n(Cc3ccccc3)c(=O)n12 | > 100 µM (inactive) | > 100 µM (inactive) | > 100 µM (inactive) |  | > 100 µM (inactive) |  | > 100 µM (inactive) | > 100 µM (inactive) | > 100 µM (inactive) | > 100 µM (inactive) |  | > 100 µM (inactive) | > 100 µM (inactive) | > 100 µM (inactive) | > 100 µM (inactive) |  | > 100 µM (inactive) | > 100 µM (inactive) |  | > 100 µM (inactive)
9 | O=C1CC(=O)NC(NN2C(=O)/C(=C/c3ccc(Cl)cc3)N=C2c2ccccc2)=N1 | 14.5 µM (inactive) | 15.8 µM (inactive) |  |  | 17.3 µM (inactive) | 14.6 µM (inactive) | 21.2 µM (inactive) | 13 µM (inactive) | 29.1 µM (inactive) | 9.53 µM (inactive) | 4.73 µM (inactive) | 15.6 µM (inactive) | 17.4 µM (inactive) | 9.62 µM (inactive) | 17 µM (inactive) | 14.5 µM (inactive) | 14.9 µM (inactive) | 16.8 µM (inactive) | 13.2 µM (inactive) | 23 µM (inactive)
10 | O=C(Nc1ccn(C2CC(O)C(CO)O2)c(=O)n1)c1ccccc1 (centres undefined) | > 100 µM (inactive) | > 100 µM (inactive) | > 100 µM (inactive) | > 100 µM (inactive) |  | > 100 µM (inactive) | > 100 µM (inactive) | > 100 µM (inactive) | > 100 µM (inactive) | > 100 µM (inactive) | > 100 µM (inactive) | > 100 µM (inactive) | > 100 µM (inactive) | > 100 µM (inactive) | > 100 µM (inactive) | > 100 µM (inactive) | > 100 µM (inactive) | > 100 µM (inactive) | > 100 µM (inactive) | > 100 µM (inactive)
11 | O=C(c1ccc(Cl)cc1)C(O)c1ccc(Cl)cc1 (centres undefined) | 63.2 µM (inactive) | 53.8 µM (inactive) | > 100 µM (inactive) | 34.2 µM (inactive) | 40.3 µM (inactive) | 59.7 µM (inactive) | 75.7 µM (inactive) | 41.6 µM (inactive) | > 100 µM (inactive) | > 100 µM (inactive) | 24.8 µM (inactive) | > 100 µM (inactive) | > 100 µM (inactive) | 30.8 µM (inactive) | > 100 µM (inactive) | > 100 µM (inactive) | > 100 µM (inactive) | > 100 µM (inactive) | 85.3 µM (inactive) | 
12 | COc1cc2c3c(n(C)c(=O)c2cc1OC)-c1cc2c(cc1/C3=C\CCCI)OCO2 | 1.73 µM (inactive) | 1.7 µM (inactive) | 13.7 µM (inactive) | 30.1 µM (inactive) | 2.23 µM (inactive) | 38.9 µM (inactive) | 2.91 µM (inactive) | > 87.9 µM (inactive) |  | 5.42 µM (inactive) | 0.238 µM (active) | 4.21 µM (inactive) | 0.533 µM (active) | 2.07 µM (inactive) | 5.32 µM (inactive) | 2.61 µM (inactive) | 18.1 µM (inactive) | 8.75 µM (inactive) | 1.58 µM (inactive) | 20.9 µM (inactive)
13 | Cc1c(S(=O)(=O)N/C(=N\O)Nc2ccc(Cl)c(Cl)c2)sc2ccc(Cl)cc12 | 21.9 µM (inactive) | 17.7 µM (inactive) | 19.1 µM (inactive) | 12.9 µM (inactive) | 20.7 µM (inactive) | 24.7 µM (inactive) | 24.9 µM (inactive) | 16.9 µM (inactive) |  |  | 34.1 µM (inactive) | 21.3 µM (inactive) | 39.4 µM (inactive) | 29.5 µM (inactive) | 19.7 µM (inactive) | 21.5 µM (inactive) | 18.7 µM (inactive) | 18.7 µM (inactive) | 17.5 µM (inactive) | 
14 | CCN(CC)C1CCC(C2c3cc4c(cc3OC(N3CCOCC3)C2C)OCO4)CC1 (centres undefined) | 23.6 µM (inactive) | 16.9 µM (inactive) | 71.4 µM (inactive) | 22.8 µM (inactive) | 21.6 µM (inactive) | 27.5 µM (inactive) | 22.6 µM (inactive) | 16.8 µM (inactive) | 61.8 µM (inactive) | 16.3 µM (inactive) | 10.1 µM (inactive) | 37.1 µM (inactive) | 16.1 µM (inactive) | 8.77 µM (inactive) | 33.7 µM (inactive) | 13.7 µM (inactive) | 27 µM (inactive) | > 29.2 µM (inactive) | > 27.9 µM (inactive) | 
15 | O=C1NC(N2CCCCC2)=N/C1=C\c1ccc(Cl)cc1 | 20.2 µM (inactive) | 71.4 µM (inactive) | 37 µM (inactive) | 26.3 µM (inactive) | 16.5 µM (inactive) | 38.5 µM (inactive) | 47.2 µM (inactive) | 25.1 µM (inactive) |  |  | > 100 µM (inactive) | 44.5 µM (inactive) | 68.4 µM (inactive) |  | 28.7 µM (inactive) | 66.8 µM (inactive) | 22 µM (inactive) | 72.6 µM (inactive) | 25.9 µM (inactive) | > 100 µM (inactive)
